In ChEMBL document CHEMBL4732213, “Discovery of novel ceramide analogs with favorable pharmacokinetic properties and combination with AKT inhibitor against colon cancer” (Eur J Med Chem, 2021):
Active and inactive are the calls of the source. The rule behind the calls is not given here.

Assays:
HT-29 [1] = experiment: Antiproliferative activity against human HT-29 cells measured after 72 hrs by sulforhodamine B assay; assay type: functional, cell-based; details: HT-29, 72 h
HT-29 [2] = experiment: Down regulation of p-RB expression in human HT29 cells at 10 uM incubated for 24 hrs by Western blotting analysis; assay type: functional, cell-based
HT-29 [3] = experiment: Induction of apoptosis in human HT29 cells assessed as inhibition of AKT phosphorylation at 10 uM after 48 hrs by Western blotting analysis; assay type: functional, cell-based
HT-29 [4] = experiment: Upregulation of p21 protein expression in human HT29 cells at 10 uM incubated for 24 hrs by Western blotting analysis; assay type: functional, cell-based
HT-29 [5] = experiment: Downregulation of c-Myc protein expression level in human HT29 cells at 10 uM incubated for 24 hrs by Western blotting analysis; assay type: functional, cell-based
HT-29 [6] = experiment: Induction of apoptosis in human HT29 cells at 7.5 uM after 48 hrs by Annexin-V-FITC/PI staining based flow cytometric analysis; assay type: functional, cell-based
HT-29 [7] = experiment: Induction of cell cycle arrest in human HT29 cells assessed as accumulation at G0/G1 phase at 10 uM after 24 hrs by PI staining based flow cytometry analysis; assay type: functional
HT-29 [8] = experiment: Antitumor activity against human HT-29 cells xenografted in BALB/c nude mouse assessed as tumor growth inhibition at 50 mg/kg, po Q2D measured every 3 days by electronic caliper method; assay type: functional; details: HT-29, po, 72 h, time 3 day, read-out: TGI
[9] = Toxicity in BALB/c nude mouse xenografted with human HT-29 cells assessed as effect on body weight at 50 mg/kg, po measured every 3 day by electronic caliper method; assay type: organism-based; details: in vivo, 72 h
HT-29 [10] = experiment: Induction of ROS generation in human HT29 cells at 10 uM after 16 hrs by flow cytometric analysis; assay type: functional, cell-based
[11] = Half life in BALB/c mouse at 50 mg/kg, ip; assay type: ADME, organism-based; details: in vivo
[12] = Cmax in BALB/c mouse at 50 mg/kg, ip; assay type: ADME, organism-based; parameters: route intraperitoneal, dose 50 mg/kg; details: in vivo
[13] = AUC(0 to infinity) in BALB/c mouse at 10 mg/kg, iv; assay type: ADME, organism-based; parameters: route intravenous, time infinity, dose 10 mg/kg; details: in vivo
[14] = Half life in BALB/c mouse at 10 mg/kg, iv; assay type: ADME, organism-based; details: in vivo
[15] = AUC(0 to t) in BALB/c mouse at 50 mg/kg, ip; assay type: ADME, organism-based; parameters: dose 50 mg/kg; details: in vivo
[16] = AUC(0 to t) in BALB/c mouse at 10 mg/kg, iv; assay type: ADME, organism-based; parameters: dose 10 mg/kg; details: in vivo
[17] = Tmax in BALB/c mouse at 50 mg/kg, ip; assay type: ADME, organism-based; details: in vivo
[18] = AUC(0 to infinity) in BALB/c mouse at 50 mg/kg, ip; assay type: ADME, organism-based; parameters: time infinity, route intraperitoneal, dose 50 mg/kg; details: in vivo

| SMILES | IC50 (HT-29 [1]) | other results |
| --- | --- | --- |
| CCCCCCCCc1ccc(CCC(CO)(CO)NC(=O)c2ccccc2)c2ccccc12 | 23 µM |  |
| CCCCc1ccc(COc2ccc(CCC(CO)(CO)NC(C)=O)c3ccccc23)cc1 | 27.1 µM |  |
| CCCCCCCCc1ccc(CCC(CO)(CO)NC(=O)CCCCCCC)c2ccccc12 | 22 µM |  |
| CCCCc1ccc(Oc2ccc(CCC(CO)(CO)NC(C)=O)c3ccccc23)cc1 | > 80 µM |  |
| CCCCCCCOc1ccc(CCC(CO)(CO)NC(=O)OCc2ccccc2)c2ccccc12 | 60.5 µM |  |
| CCCCCCCOc1ccc(CCC(CO)(CO)NC(=O)CCCCCCC)c2ccccc12 | 18.8 µM |  |
| CCCCCCCOc1ccc(CCC(CO)(CO)NC(=O)OCCCC)c2ccccc12 | 22.4 µM |  |
| COc1ccc(CCC(CO)(CO)NC(C)=O)c2ccccc12 | > 80 µM |  |
| CCCCCCCCc1ccc(C(O)CC(CO)(CO)NC(C)=O)c2ccccc12 (configuration not stated) | 77.9 µM |  |
| NC1(c2ccc(-c3nc4ccn5c(=O)[nH]nc5c4cc3-c3ccccc3)cc2)CCC1 [MK-2206] |  | Activity (HT-29 [2]): inactive; Activity (HT-29 [3]): Active; Activity (HT-29 [4]): inactive; Activity (HT-29 [5]): inactive; Activity (HT-29 [6]): inactive; Activity (HT-29 [7]): Active; inhibition in vivo at 50 mg/kg (HT-29 [8]): 30.9%; Activity [9]: Non-Toxic; Activity (HT-29 [10]): Active |
| CCCCCCCCCC(=O)NC(CO)(CO)CCc1ccc(CCCCCCCC)c2ccccc12 | > 80 µM |  |
| CCCCCCCCc1ccc(CCC(CO)(CO)NC(=O)CCCCC)c2ccccc12 | 20.3 µM |  |
| C/C=C/C(=O)NC(CO)(CO)CCc1ccc(OCCCCCCC)c2ccccc12 | 36.4 µM |  |
| CCCCCCCCc1ccc(CCC(CO)(CO)NC(=O)CCC)c2ccccc12 | 26.4 µM |  |
| CCCCCCCOc1ccc(CCC(CO)(CO)NC(=O)CCCCC)c2ccccc12 | 21.9 µM |  |
| CCCCCCCCc1ccc(CCC(CO)(CO)NC(=O)C(C)CC)c2ccccc12 (configuration not stated) | 25.6 µM |  |
| CC(=O)NC(CO)(CO)CCc1ccc(O)c2ccccc12 | > 80 µM |  |
| CCCCCCCCCCCCCC(=O)NC(CO)(CO)CCc1ccc(CCCCCCCC)c2ccccc12 | > 80 µM |  |
| CCCCCCCCc1ccc(CCC(CO)(CO)NC(C)=O)c2ccccc12 | 36.5 µM |  |
| CCCCCCCOc1ccc(CCC(CO)(CO)NC(=O)OC(C)(C)C)c2ccccc12 | 21.4 µM |  |
| CCCCCCCCCCCCC/C=C/[C@@H](O)[C@H](CO)NC(C)=O | 25.9 µM | half-life [11]: 3.99 h; Cmax [12]: 2740 ng/mL; AUC(0-inf) [13]: 1630 ng·h/mL; half-life [14]: 5.08 h; AUC(0-t) [15]: 4060 ng·h/mL; AUC(0-t) [16]: 1620 ng·h/mL; Tmax [17]: 0.417 h; AUC(0-inf) [18]: 4090 ng·h/mL |
